{"source": "patent US20090088373A1", "about": "“USE OF COMPOSITIONS TO ENHANCE INNATE IMMUNE RESPONSE” (priority 2007, published 2009)", "key": {"[1]": {"test_system": "cathelicidin", "assay": "Cathelicidin mRNA expression in normal human keratinocytes (NHEK)", "format": "cell-based", "set-up": "Cathelicidin mRNA expression (Mean) / Cathelicidin mRNA expression (means): unit not given here", "conditions": "for Cathelicidin mRNA expression (means): 1 uM tacrolimus, 1 ug/ml CsA, 25ng/ml rapamycin; for Cathelicidin mRNA expression (Means of N = 3): Example 6, 10 nM Pimecrolimus, 1 nM 1,25D3", "procedure": "To assess the effect of pimecrolimus on the innate immune response of the epidermis, cultures of normal human keratinocytes (NHEK) are stimulated with combinations of a concentration of 10 nM pimecrolimus, 1 μg/ml TLR 2/CD14 ligand—peptidoglycan (PGN), 10 μg/ml lipoteichoic acid (LTA), 2 0.1 μg/ml TLR 2/6 ligand—Malp-, and/or 0.1 μg/ml TLR 4/CD14 ligand—lipopolysaccharide (LPS). Expression of cathelicidin mRNA (Table 3) and protein as well as Human Beta Defensin (HBD) 2 (Table 4) and HBD3 (Table 5) expression in normal human keratinocytes is measured.\nTo assess the effect of pimecrolimus on the innate immune response of the epidermis, cultures of normal human keratinocytes (NHEK) are stimulated with a concentration of 10 nM pimecrolimus,1 nM 1.25 D3, 0.1 μg/ml TLR2/6 ligand Malp-2 or their combination. Expression of cathelicidin, CD14 and TLR2 mRNA normal human keratinocytes is measured and evaluated accordingly to the procedures as detailed in Example 2 above.\nTo assess the effect of pimecrolimus on the innate immune response of the epidermis, cultures of normal human keratinocytes (NHEK) are stimulated with a concentration of 10 nM pimecrolimus, 1 uM tacrolimus, 1 ug/ml CsA, 25ng/ml rapamycin, or a combination of pimecrolimus and rapamycin, each of these with or without 0.1 μg/ml TLR2/6 ligand Malp-2. Cathelicidin mRNA expression is evaluated.\nTo assess the effect of time dependent effects of pimecrolimus on the innate immune response of the epidermis, cultures of normal human keratinocytes (NHEK) are stimulated with 10 nM Pimecrolimus and low dose calciferol (1,25D3) 1 nM for different time points. mRNA expression of cathelicidin, CD14 and TLR2 is analyzed by qPCR.\nTo assess the effect of varying levels of pimecrolimus on the innate immune response of the epidermis, cultures of normal human keratinocytes (NHEK) are stimulated with 0 nM, 5 nM, 10 nM, 20 nM, 30 nM, […], […] and 60 nM concentrations of pimecrolimus. Expression of cathelicidin mRNA expression is measured and evaluated accordingly to the procedures as detailed in Example 2 above.\nTo assess the effect of calciferol on varying levels of pimecrolimus on the innate immune response of the epidermis, cultures of normal human keratinocytes (NHEK) are stimulated with 0.01 nM, 0.1 nM, 1 nM and 10 nM concentrations of pimecrolimus with or without 1 nM concentrations of calciferol for 24 hours. Expression of cathelicidin mRNA and gene expression of TLR2 is measured and evaluated accordingly to the procedures as detailed in Example 2 above."}, "[2]": {"test_system": "TLR1", "assay": "TLR1 gene expression by qPCR in NHEK", "format": "cell-based, human", "conditions": "Example 3; 10 nM pimecrolimus, 1 nM 1.25D3", "procedure": "To assess the effect of pimecrolimus on the innate immune response of the epidermis, cultures of normal human keratinocytes (NHEK) are stimulated with a combination of a concentration of 10 nM pimecrolimus and of 1 nM 1.25D3. Gene expression of TLR1, TLR2, TLR4, TLR6 and CD14 are evaluated by qPCR. For CD14 protein expression, a Western Blot is performed and bands are quantified by densitometry using lmagej. Vehicle treated keratinocytes serve as controls. Cathelicidin protein expression is evaluated by immunofluorescence staining."}}, "data": [{"smiles": "CC[C@@H]1/C=C(\\C)C[C@H](C)C[C@H](OC)[C@H]2O[C@@](O)(C(=O)C(=O)N3CCCC[C@H]3C(=O)O[C@H](/C(C)=C/[C@@H]3CC[C@H](Cl)[C@H](OC)C3)[C@H](C)[C@@H](O)CC1=O)[C@H](C)C[C@@H]2OC", "note": "[Pimecrolimus, pimecrolimus]", "values": [{"measurement": "Cathelicidin mRNA expression (Mean)", "setting": "[1]; Example 2, with 10 nM Pimecrolimus + 0.1 μg/ml LPS", "value": 8.67}, {"measurement": "Cathelicidin mRNA expression (Mean)", "setting": "[1]; Example 2, with 10 nM Pimecrolimus + 0.1 μg/ml Malp-2", "value": 26.08}, {"measurement": "Cathelicidin mRNA expression (Mean)", "setting": "[1]; Example 2, with 10 nM Pimecrolimus + 1 μg/ml PGN", "value": 9.81}, {"measurement": "Cathelicidin mRNA expression (Mean)", "setting": "[1]; Example 2, with 10 nM Pimecrolimus + 10 μg/ml LTA", "value": 18.56}, {"measurement": "Cathelicidin mRNA expression (Mean)", "setting": "[1]; Example 2, with 10 nM Pimecrolimus, no TLR ligand (control row)", "value": 2.64}, {"measurement": "Cathelicidin mRNA expression (Mean)", "setting": "[1]; Example 4, 10 nM pimecrolimus, 1 nM 1.25 D3, 0.1 μg/ml Malp-2 or combination", "value": 22.57}, {"measurement": "Cathelicidin mRNA expression (means)", "setting": "[1]; Example 5, Experiment 1, with 0.1 μg/ml Malp-2, 10 nM pimecrolimus", "value": 2.98}, {"measurement": "Cathelicidin mRNA expression (means)", "setting": "[1]; Example 5, Experiment 1, without Malp-2, 10 nM pimecrolimus", "value": 1.33}, {"measurement": "Cathelicidin mRNA expression (means)", "setting": "[1]; Example 5, Experiment 2, with 0.1 μg/ml Malp-2, 10 nM pimecrolimus", "value": 3.07}, {"measurement": "Cathelicidin mRNA expression (means)", "setting": "[1]; Example 5, Experiment 2, without Malp-2, 10 nM pimecrolimus", "value": 2.40}, {"measurement": "Cathelicidin mRNA expression (Means of N = 3)", "setting": "[1]; 0 h", "value": 1.20}, {"measurement": "Cathelicidin mRNA expression (Means of N = 3)", "setting": "[1]; 8 h", "value": 1.82}, {"measurement": "Cathelicidin mRNA expression (Means of N = 3)", "setting": "[1]; 24 h", "value": 1.75}, {"measurement": "Cathelicidin mRNA expression (Means of N = 3)", "setting": "[1]; 48 h", "value": 2.06}, {"measurement": "Concentration at which cathelicidin mRNA expression peaks (bell-shaped dose response)", "setting": "[1]; Example 7", "value": 20, "unit": "nM"}, {"measurement": "Cathelicidin mRNA expression (Mean)", "setting": "[1]; Example 7, 5 nM PIM", "value": 1.46}, {"measurement": "Cathelicidin mRNA expression (Mean)", "setting": "[1]; Example 7, 10 nM Pim", "value": 2.26}, {"measurement": "Cathelicidin mRNA expression (Mean)", "setting": "[1]; Example 7, 20 nM Pim", "value": 82.72}, {"measurement": "Cathelicidin mRNA expression (Mean)", "setting": "[1]; Example 7, 40 nM Pim", "value": 3.37}, {"measurement": "Cathelicidin mRNA expression (Mean)", "setting": "[1]; Example 7, 60 nM Pim", "value": 1.78}, {"measurement": "Cathelicidin mRNA expression (Mean)", "setting": "[1]; Example 8, 0.01 nM PIM with 1 nM 1.25D3, 24 hours", "value": 4.56}, {"measurement": "Cathelicidin mRNA expression (Mean)", "setting": "[1]; Example 8, 0.01 nM PIM, no 1.25D3, 24 hours", "value": 1.04}, {"measurement": "Cathelicidin mRNA expression (Mean)", "setting": "[1]; Example 8, 0.1 nM PIM with 1 nM 1.25D3, 24 hours", "value": 4.19}, {"measurement": "Cathelicidin mRNA expression (Mean)", "setting": "[1]; Example 8, 0.1 nM PIM, no 1.25D3, 24 hours", "value": 0.47}, {"measurement": "Cathelicidin mRNA expression (Mean)", "setting": "[1]; Example 8, 1 nM PIM with 1 nM 1.25D3, 24 hours", "value": 10.92}, {"measurement": "Cathelicidin mRNA expression (Mean)", "setting": "[1]; Example 8, 1 nM PIM, no 1.25D3, 24 hours", "value": 1.61}, {"measurement": "Cathelicidin mRNA expression (Mean)", "setting": "[1]; Example 8, 10 nM PIM with 1 nM 1.25D3, 24 hours", "value": 99.45}, {"measurement": "Cathelicidin mRNA expression (Mean)", "setting": "[1]; Example 8, 10 nM PIM, no 1.25D3, 24 hours", "value": 9.81}, {"measurement": "Increase of cathelicidin mRNA expression, pimecrolimus in conjunction with calciferol versus pimecrolimus alone", "setting": "[1]; at the 1 nM and 10 nM concentrations of pimecrolimus, 1 nM calciferol", "value": "> 2", "unit": "times"}, {"measurement": "Transcript and protein abundance of antimicrobial genes (in words)", "setting": "[1]; in the presence of Toll 2/6 ligand Malp-2, summary of Tables 3-5 (cathelicidin, HBD2, HBD3)", "value": "increases transcript and protein abundance of antimicrobial genes"}, {"measurement": "Cathelicidin transcript abundance (in words)", "setting": "[1]; in the presence of low dose 1,25D3 and Malp-2", "value": "enhances cathelicidin transcript abundance"}, {"measurement": "TLR1 mRNA expression (Mean)", "setting": "[2]", "value": 3.16}]}]}
